Legend:
[1] = target: T1, 5-HT1A (Rattus norvegicus, UniProt P19327); assay: inhibition of tritiated ligand ([3H]8-OH-DPAT) binding to 5-HT1A receptors, rat hippocampal tissue; parameters: species or system male Charles River CD rats; conditions: for inhibition at 1 µM: at 10^-6 M, read-out: % displacement of specific binding, 5-HT1A
T1 construct: Hippocampal tissue from the brains of male Charles River CD rats; from tissue; host or cells: rat hippocampus (male Charles River CD rats), crude membrane pellet
T1 sequence (P19327 1-422): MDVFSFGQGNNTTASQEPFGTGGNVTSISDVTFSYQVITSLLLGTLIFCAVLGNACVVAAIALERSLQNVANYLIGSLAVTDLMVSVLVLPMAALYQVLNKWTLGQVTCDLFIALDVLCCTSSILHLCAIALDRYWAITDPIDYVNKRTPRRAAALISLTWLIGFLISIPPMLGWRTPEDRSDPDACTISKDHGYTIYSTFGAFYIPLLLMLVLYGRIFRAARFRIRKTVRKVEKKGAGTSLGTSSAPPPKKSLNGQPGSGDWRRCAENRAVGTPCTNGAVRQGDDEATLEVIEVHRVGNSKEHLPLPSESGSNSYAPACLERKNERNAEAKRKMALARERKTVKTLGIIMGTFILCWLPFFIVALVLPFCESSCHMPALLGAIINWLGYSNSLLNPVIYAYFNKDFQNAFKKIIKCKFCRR
Protocol: Hippocampal tissue from the brains of male Charles River CD rats weighing between 150-250 g were homogenised in ice-cold 50 mM Tris-HCl buffer (pH 7.7) when measured at 25° C., 1:40 w/v) and centrifuged at 30,000 g at 4° C. for 10 minutes. The pellet was rehomogenised in the same buffer, incubated at 37° C. for 10 minutes and centrifuged at 30,000 g at 4° C. for 10 minutes. The final pellet was resuspended in 50 mM Tris-HCl buffer (pH 7.7) containing 4 mM CaCl2, 0.1% L-ascorbic acid and 10 μM pargyline hydrochloride (equivalent to 6.25 mg wet weight of tissue/ml) and used immediately in the binding assay. Aliquots (400 μl; equivalent to 2.5 mg wet weight of tissue/tube) of this suspension were added to tubes containing the ligand (50 μl; 2 nM) and distilled water (50 μl; total binding) or 5-HT (50 μl; 10 μM; non-specific binding) or test compound (50 μl; at a single concentration of 10^-6 M or at 10 concentrations ranging from 10^-11 -10^-3 M). The ligand was [^3 H]8-hydroxy-2-(dipropylamino)tetralin ([^3 H]8-OH-DPAT) and the mixture was incubated at 25° C. for 30 minutes before the incubation was terminated by rapid filtration.
The filters were washed with ice-cold Tris-HCl buffer and dried. The filters were punched out into vials, scintillation fluid added and radioactivity determined by liquid scintillation counting. The percentage displacement of specific binding of the tritiated ligand was calculated for the single concentration (10^-6 M) of test compound. Displacement curves were then produced for those compounds which displaced ≥50% of specific binding of the tritiated ligand at 10^-6 M using a range of concentrations of the compound. The concentration which gave 50% inhibition of specific binding (IC50) was obtained from the curve. The inhibition coefficient Ki was then calculated using the formula [formula] in which [ligand] is the concentration of the tritiated ligand used and KD Is the equilibrium dissociation constant for the ligand.

[2] = target: T2, D2-like dopamine receptors (Rattus norvegicus, UniProt P61169); assay: inhibition of tritiated (S)-sulpiride binding to D2-like dopamine receptors, rat striatal tissue; parameters: species or system male Charles River CD rats; conditions: for Ki: 4° C., 40 minutes, pH 7.7
T2 construct: Striatal tissue from the brains of male Charles River CD rats; from tissue; host or cells: rat striatum (male Charles River CD rats), crude membrane pellet
Protocol: Striatal tissue from the brains of male Charles River CD rats weighing between 140-250 g were homogenised in ice-cold 50 mM Tris-HCl buffer (pH 7.7 when measured at 25° C.) and centrifuged at 40,000 g for 10 minutes. The pellet was resuspended in Tris salts buffer (50 mM Tris-HCl buffer containing 120 mM NaCl, 5 mM KCl, 2 mM CaCl2 and 1 mM MgCl2 with the addition of 6 mM ascorbic acid; pH 7.7 when measured at 25° C.), and again centrifuged at 40,000 g for 10 minutes. The final pellet was stored at -80° C. Before each test the pellet was resuspended in Tris salts buffer (equivalent to 2 mg wet weight of tissue/ml). Aliquots (720 μl; equivalent to 1.44 mg wet weight of tissue/tube) of this suspension were then added to tubes containing the ligand (40 μl; 1 nM) and Tris salts buffer (40 μl; total binding) or spiroperidol (40 μl; 10 nM; non-specific binding) or test compound (40 μl; at a single concentration of 10^-6 M or at 6 concentrations ranging from 10^-11 -10^-4 M). The ligand was tritiated (S)-sulpiride and the mixture was incubated at 4° C. for 40 minutes before the incubation was terminated by rapid filtration.
The filters were washed with ice-cold Tris-HCl buffer and dried. The filters were punched out in to vials, scintillation fluid added and were left for about 20 hours before being counted by scintillation spectrophotometry. The percentage displacement of specific binding of the tritiated ligand was calculated for the single concentration (10^-6 M) of test compound. Displacement curves were then produced over a range of concentrations for those compounds which displaced ≥50% of specific binding of the tritiated ligand at 10^-6 M. The concentration which gave a 50% inhibition of specific binding (IC50) was obtained from the curve. The inhibition coefficient Ki was then calculated using the formula [formula] in which [ligand] is the concentration of the tritiated ligand used and KD is the equilibrium dissociation constant for the ligand.

T2 sequence (P61169 whole entry): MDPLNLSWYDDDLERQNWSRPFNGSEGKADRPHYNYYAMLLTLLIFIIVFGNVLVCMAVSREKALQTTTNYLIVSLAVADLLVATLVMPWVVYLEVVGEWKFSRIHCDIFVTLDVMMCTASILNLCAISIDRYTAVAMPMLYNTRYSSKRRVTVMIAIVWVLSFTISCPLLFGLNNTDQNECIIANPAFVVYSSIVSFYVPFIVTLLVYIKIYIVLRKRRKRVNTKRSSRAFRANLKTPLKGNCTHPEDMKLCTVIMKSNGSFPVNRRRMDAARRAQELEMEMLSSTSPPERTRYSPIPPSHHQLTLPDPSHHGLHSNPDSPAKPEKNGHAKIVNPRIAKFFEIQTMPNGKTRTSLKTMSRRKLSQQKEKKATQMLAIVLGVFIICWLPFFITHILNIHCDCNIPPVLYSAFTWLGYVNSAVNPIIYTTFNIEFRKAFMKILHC

| inhibition at 1 µM [1] [%] | Ki [2] [nM] | Ki ([1]; 25° C., 30 minutes, pH 7.7) [nM] | inhibition at 1 µM ([2]; at 10^-6 M, read-out: % displacement of specific binding, D2-like) [%] | Compound |
| --- | --- | --- | --- | --- |
| 90 | 533 |  |  | O=S(=O)(NCC1CCN(C[C@H]2COc3ccc(Cl)cc3O2)CC1)c1ccc(C(F)(F)F)cc1 [Example 24, (S)-N-{[1-(7-Chloro-1,4-benzodioxan-2-ylmethyl)-4-piperidyl]methyl}-4-trifluoromethylbenzenesulphonamide] |
|  | 50.1 | 7.4 |  | O=S(=O)(NCC1CCN(C[C@H]2COc3ccc(Cl)cc3O2)CC1)c1c(F)cccc1F [Example 10, (S)-(-)-N-{[1-(7-chloro-1,4-benzodioxan-2-ylmethyl)-4-piperidyl]methyl}-2,6-difluorobenzenesulphonamide] |
| 91 | 119 |  |  | O=[N+]([O-])c1cccc(S(=O)(=O)NCC2CCN(C[C@H]3COc4ccc(Cl)cc4O3)CC2)c1 [Example 25, (S)-N-{[1-(7-Chloro-1,4-benzodioxan-2-ylmethyl)-4-piperidyl]methyl}-3-nitrobenzenesulphonamide] |
| 71 | 249 |  |  | Cc1cc(C)c(S(=O)(=O)NCC2CCN(C[C@H]3COc4ccc(Cl)cc4O3)CC2)c(C)c1 [Example 21, (S)-N-{[1-(7-Chloro-1,4-benzodioxan-2-ylmethyl)-4-piperidyl]methyl}-2,4,6-trimethylbenzenesulphonamide] |
| 82 |  |  | 83 | CCN(CC)c1cccc2c(S(=O)(=O)NCC3CCN(C[C@H]4COc5ccc(Cl)cc5O4)CC3)cccc12 [Example 23, (S)-N-{[1-(7-Chloro-1,4-benzodioxan-2-ylmethyl)-4-piperidyl]methyl}-5-(diethylamino)naphthalene-1-sulphonamide] |
| 90 | 227 |  |  | O=S(=O)(NCC1CCN(C[C@H]2COc3ccc(Cl)cc3O2)CC1)c1ccc(I)cc1 [Example 18, (S)-N-{[1-(7-Chloro-1,4-benzodioxan-2-ylmethyl)-4-piperidyl]methyl}-4-iodo-benzenesulphonamide] |
| 88 | 519 |  |  | O=S(=O)(NCC1CCN(C[C@H]2COc3ccc(Cl)cc3O2)CC1)c1ccc(C(F)(F)F)cc1Cl [Example 17, (S)-2-Chloro-N-{[1-(7-chloro-1,4-benzodioxan-2-ylmethyl)-4-piperidyl]methyl}-4-trifluoromethylbenzenesulphonamide] |
| 75 | 235 |  |  | O=S(=O)(NCC1CCN(C[C@H]2COc3ccc(Cl)cc3O2)CC1)c1cc2nnoc2c2ccccc12 [Example 20, (S)-N-{[1-(7-Chloro-1,4-benzodioxan-2-ylmethyl)-4-piperidyl]methyl}naphth [2,1-d][1,2,3]oxadiazole-5-sulphonamide] |

From US6136825A, “Sulfonamide compounds having 5-HT receptor activity” (Knoll Aktiengesellschaft, priority 1996, dated 2000)
